From ChEMBL document CHEMBL6127144, “Optimization of a Piperidine CD4-Mimetic Scaffold Sensitizing HIV-1 Infected Cells to Antibody-Dependent Cellular Cytotoxicity” (ACS Med Chem Lett, 2024) come the findings set out here.

Calls of active or inactive are those of the source. No cut-off for these calls is given here. Where only a bound is given, the exact number is not on record here.

In data set [1] the test system is CD4+ T cell. Put plainly: Binding affinity to 17b Antibody in HIV-1 AD8 infected human primary CD4+ T cell by measuring median fluorescence intensity at 50 uM incubated for 48 hrs by Alexa Fluor 647 staining based flow cytometric analysis.
Data set [2] deals with CD4+ T cell. Put plainly: Binding affinity to 17b Antibody in HIV-1 JRFL infected human primary CD4+ T cell by measuring median fluorescence intensity at 50 uM incubated for 48 hrs by Alexa Fluor 647 staining based flow cytometric analysis.
Data set [3] has as its system Human immunodeficiency virus 1. Description: Antiviral activity against HIV-1 JRFL infected in human TZM-bl cells assessed as inhibition of viral growth incubated for 48 hrs by luminometer based neutralization assay. The data set is classed as functional, organism-based. Particulars: Human immunodeficiency virus 1, JRFL.
Data set [4] has as its system CD4+ T cell. Description: Binding affinity to 17b Antibody in HIV-1 AD8 infected human primary CD4+ T cell co-cultured with KHYG-1 cells assessed as antibody driven cell cytotoxicity at 50 uM incubated for 4 to 6 hrs by Alexa Fluor 647 staining based flow cytometric analysis. Particulars: time 4-6 hrs.
For data set [5], the system named is Human immunodeficiency virus 1. Put plainly: Antiviral activity against HIV-1 CH58TF infected in human TZM-bl cells assessed as inhibition of viral growth incubated for 48 hrs by luminometer based neutralization assay. Particulars: Human immunodeficiency virus 1, CH58TF. The data set is classed as functional, organism-based.
Data set [6] deals with Human immunodeficiency virus 1. Put plainly: Antiviral activity against HIV-1 AD8 infected in human TZM-bl cells assessed as inhibition of viral growth incubated for 48 hrs by luminometer based neutralization assay. The data set is classed as functional, organism-based. As to conditions: Human immunodeficiency virus 1, AD8, TZM-bl.
For data set [7], the system named is Moloney murine leukemia virus. Put plainly: Antiviral activity against Moloney murine leukemia virus infected in human TZM-bl cells assessed as inhibition of viral growth incubated for 48 hrs by luminometer based neutralization assay. The data set is classed as functional, organism-based.
Data set [8] concerns CD4+ T cell. Put plainly: Binding affinity to 17b Antibody in HIV-1 CH58TF infected human primary CD4+ T cell co-cultured with KHYG-1 cells assessed as antibody driven cell cytotoxicity at 50 uM incubated for 4 to 6 hrs by Alexa Fluor 647 staining based flow cytometric analysis. As to conditions: time 4-6 hrs. For orientation: A flow cytometer gives signals particle by particle.

Data set [9] relates to TZM. Description: Cytotoxicity against human TZM-bl cells upto 100 uM incubated for 48 hrs by cell-titer glo luminescent assay. It counts as toxicity, cell-based.
Data set [10] has as its system Human immunodeficiency virus 1. Put plainly: Antiviral activity against HIV-1 CH58TF infected in human primary CD4+ T cell co-cultured with KHYG-1 cells assessed as inhibition of viral growth at 50 uM incubated for 4 to 6 hrs in presence of HIV+ plasma by flow cytometric analysis. It counts as functional, organism-based. Particulars: time 4-6 hrs.
In data set [11] the test system is Human immunodeficiency virus 1. Description: Antiviral activity against HIV-1 AD8 infected in human primary CD4+ T cell co-cultured with KHYG-1 cells assessed as inhibition of viral growth at 50 uM incubated for 4 to 6 hrs in presence of HIV+ plasma by flow cytometric analysis. The data set is classed as functional, organism-based. Particulars: time 4-6 hrs.
In data set [12] the test system is CD4+ T cell. Put plainly: Binding affinity to 17b Antibody in HIV-1 JRFL infected human primary CD4+ T cell co-cultured with KHYG-1 cells assessed as antibody driven cell cytotoxicity at 50 uM incubated for 4 to 6 hrs by Alexa Fluor 647 staining based flow cytometric analysis. As to conditions: time 4-6 hrs.
The subject of data set [13] is Human immunodeficiency virus 1. Description: Antiviral activity against HIV-1 JRFL infected in human primary CD4+ T cell co-cultured with KHYG-1 cells assessed as inhibition of viral growth at 50 uM incubated for 4 to 6 hrs in presence of HIV+ plasma by flow cytometric analysis. The data set is classed as functional, organism-based. As to conditions: time 4-6 hrs.

Data set [14] relates to CD4+ T cell. Description: Binding affinity to 17b Antibody in HIV-1 JRFL infected human primary CD4+ T cell at 50 uM incubated for 48 hrs by Alexa Fluor 647 staining based flow cytometric analysis.
Data set [15] deals with CD4+ T cell. Put plainly: Binding affinity to 17b Antibody in HIV-1 AD8 infected human primary CD4+ T cell at 50 uM incubated for 48 hrs by Alexa Fluor 647 staining based flow cytometric analysis.

As for `O=C(Nc1ccc(Cl)c(F)c1)[C@H]1CCCN(C(=O)N2CCN(CC(=O)N3CCCC3)CC2)C1`, the figures for the Flu intensity in data set [1] and in [2] were 1.52 and 1.3, respectively.
On to `N=C(N)NCCC[C@H](N)C(=O)N1CCN(C(=O)N2CCC[C@H](C(=O)Nc3ccc(Cl)c(F)c3)C2)CC1`, for which the concentration for half-maximal inhibition (IC50) in data set [3] is no less than 72.6 µM; in data set [5], 220 nM; in data set [6] it was 1270 nM; in data set [7], greater than 100 µM. Besides, the Flu intensity is 2.23 in [1] and 1.61 in [2]. For the same compound, the outcome in [4], in data set [8] and in [10] was Active. For the same compound, the Activity entry in [9] is recorded as “Non-Toxic”.
For `COCCN1CCN(C(=O)N2CCC[C@H](C(=O)Nc3ccc(Cl)c(F)c3)C2)CC1`, the Flu intensity in data set [1] amounted to 1.28; in [2], 1.43.
On to `NC(=O)[C@@H]1CCCN1C(=O)N1CCC[C@H](C(=O)Nc2ccc(Cl)c(F)c2)C1`, for which the figures for the Flu intensity in data set [1] and in [2] were 1.23 and 1.01, respectively.
The corresponding values for `CN1CCN(C(=O)N2CCC[C@H](C(=O)Nc3ccc(Cl)c(F)c3)C2)CC1` are 1.5 and 1.14.
On to `O=C(Nc1ccc(Cl)c(F)c1)[C@H]1CCCN(C(=O)N(CCO)CCO)C1`, for which the Flu intensity came out at 1.27 in [1] and 1.04 in data set [2].
On to `N=C(N)N1CCC[C@@H]1C(=O)N1CCN(C(=O)N2CCC[C@H](C(=O)Nc3ccc(Cl)c(F)c3)C2)CC1`, for which the outcome in data set [11], in [4], in data set [12], in data set [8] and in [10] was Active. The IC50 in [3] was 8.28 µM; in data set [5], 140 nM; in data set [6], 2920 nM; in data set [7], greater than 100 µM. Also, the Activity entry in data set [9] is reported as “Non-Toxic”. Further, in data set [13], the result was inactive.
For the compound `O=C(Nc1ccc(Cl)c(F)c1)[C@H]1CCCN(C(=O)N2CCOCC2)C1`, the Flu intensity in data set [1] is 1.49; in [2], 1.05.
The corresponding values for `O=C(Nc1ccc(Cl)c(F)c1)[C@H]1CCCN(C(=O)N2CCCCC2)C1` are 1.19 and 0.96.
As to `N[C@@H](Cc1ccc(O)cc1)C(=O)N1CCN(C(=O)N2CCC[C@H](C(=O)Nc3ccc(Cl)c(F)c3)C2)CC1`, the IC50 came out at 28 µM in [3] and 2180 nM in [6]. The results for the Flu intensity in data set [1] and in data set [2] were 2.48 and 2.19, respectively.
On to `CC(=O)NCSC[C@H](N)C(=O)N1CCN(C(=O)N2CCC[C@H](C(=O)Nc3ccc(Cl)c(F)c3)C2)CC1`, for which the 50% inhibitory concentration (IC50) in data set [3] worked out at 40 µM; in data set [6], 1860 nM. In addition, the figures for the Flu intensity in [1] and in data set [2] were 1.75 and 1.55, respectively. The outcome in [4] was Active.
For the compound `O=C(Nc1ccc(Cl)c(F)c1)[C@H]1CCCN(C(=O)N2CCN(c3ccccc3)CC2)C1`, the result in data set [14] and in data set [15] was inactive.
For `O=C(Nc1ccc(Cl)c(F)c1)[C@H]1CCCN(C(=O)c2c[nH]cn2)C1`, the Flu intensity was determined as 1.07 in data set [1] and 0.93 in [2].
For `N=C(N)NCC(=O)N1CCN(C(=O)N2CCC[C@H](C(=O)Nc3ccc(Cl)c(F)c3)C2)CC1`, the IC50 in data set [3] was 10.7 µM; in [5], 150 nM; in data set [6] it was 1990 nM; in data set [7], greater than 100 µM. The outcome in data set [4], in data set [12], in data set [8] and in data set [10] was Active. In addition, in [9], the Activity entry is “Non-Toxic”. The result in data set [13] was inactive.
On to `C[C@@H](O)[C@H](N)C(=O)N1CCN(C(=O)N2CCC[C@H](C(=O)Nc3ccc(Cl)c(F)c3)C2)CC1`, for which the half-inhibitory concentration (IC50) turned out to be 13.7 µM in [3] and 1550 nM in data set [6]. Besides, the Flu intensity entry in [1] and in data set [2] was “inactive” throughout.
Regarding `CN(C)CCCN1CCN(C(=O)N2CCC[C@H](C(=O)Nc3ccc(Cl)c(F)c3)C2)CC1`, the Flu intensity came out at 1.39 in data set [1] and 1.42 in [2].
On the same counts, the results for `CCN1CCN(C(=O)N2CCC[C@H](C(=O)Nc3ccc(Cl)c(F)c3)C2)CC1` are 1.23 and 1.36.
On the same counts, the results for `O=C(Nc1ccc(Cl)c(F)c1)[C@H]1CCCN(C(=O)N2CCC[C@H]2CO)C1` are 1.26 and 1.11.
Consider `N=C(N)N1CCC[C@@H]1C(=O)N1CCN(C(=O)N2C[C@H](CO)C[C@H](C(=O)Nc3ccc(Cl)c(F)c3)C2)CC1`, for which the IC50 in data set [6] was greater than 100000 nM.
In the case of `O=C(Nc1ccc(Cl)c(F)c1)[C@H]1CCCN(C(=O)N2CCN(c3ncccn3)CC2)C1`, the result in [14] and in data set [15] was inactive.
`N=C(N)NCC(=O)N1CCN(C(=O)N2C[C@H](CO)C[C@H](C(=O)Nc3ccc(Cl)c(F)c3)C2)CC1`: in [6], the IC50 was 38600 nM.
Consider `O=C(Nc1ccc(Cl)c(F)c1)[C@H]1CCCN(C(=O)N2CCN(c3cccc(C(F)(F)F)c3)CC2)C1`, for which the outcome in [14] and in [15] was inactive.
As for `NCCNC(=O)N1CCC[C@H](C(=O)Nc2ccc(Cl)c(F)c2)C1`, the result in data set [11] and in data set [4] was inactive. The half-inhibitory concentration (IC50) in data set [3] is greater than 100 µM; in [5], 1770 nM; in data set [6] it was greater than 100000 nM; in [7] it was greater than 100 µM. Besides, the result in data set [8] and in [10] was Active.
Turning to `CNCc1ccc2c(c1)C[C@H](CNC(=N)N)[C@H]2NC(=O)C(=O)Nc1ccc(Cl)c(F)c1`, the half-maximal inhibitory concentration (IC50) in data set [3] was 4.6 µM; in [5], 70 nM; in data set [6] it was 950 nM; in data set [7], greater than 100 µM. The outcome in [8] and in data set [10] was Active.
Consider `NC(=O)C[C@H](N)C(=O)N1CCN(C(=O)N2CCC[C@H](C(=O)Nc3ccc(Cl)c(F)c3)C2)CC1`, for which the half-maximal inhibitory concentration (IC50) was determined as 24.6 µM in [3] and 6210 nM in data set [6]. For the same compound, the Flu intensity stood at 2.14 in data set [1] and 1.53 in [2].
In the case of `O=C(Nc1ccc(Cl)c(F)c1)[C@H]1CCCN(C(=O)c2ccncc2)C1`, the Flu intensity in data set [1] came out at 1.25; in data set [2], 0.95.
For the compound `C[C@H](N)C(=O)N1CCN(C(=O)N2CCC[C@H](C(=O)Nc3ccc(Cl)c(F)c3)C2)CC1`, the values for the IC50 in data set [3] and in data set [6] were 5.62 µM and 1830 nM, respectively. Besides, the Flu intensity in [1] is 2.53; in data set [2], 2.02.
For `O=C(Nc1ccc(Cl)c(F)c1)[C@H]1CCCN(C(=O)N2CCN(c3ccccn3)CC2)C1`, the outcome in [14] and in [15] was inactive.

As a reminder, the IC50 is the concentration at which inhibition is half-maximal.
